Source: US9440950B2, “Arginine methyltransferase inhibitors and uses thereof” (Epizyme, Inc., priority 2013, dated 2016)

Biological target: T1, Human CARM1 (PRMT4) (Homo sapiens, UniProt Q86X55)
T1 construct: Flag-CARM1-His; made in house; host or cells: HEK 293F cells (BacMam virus, pFastBacMam)
T1 sequence (Q86X55 1-585 isoform Q86X55-1): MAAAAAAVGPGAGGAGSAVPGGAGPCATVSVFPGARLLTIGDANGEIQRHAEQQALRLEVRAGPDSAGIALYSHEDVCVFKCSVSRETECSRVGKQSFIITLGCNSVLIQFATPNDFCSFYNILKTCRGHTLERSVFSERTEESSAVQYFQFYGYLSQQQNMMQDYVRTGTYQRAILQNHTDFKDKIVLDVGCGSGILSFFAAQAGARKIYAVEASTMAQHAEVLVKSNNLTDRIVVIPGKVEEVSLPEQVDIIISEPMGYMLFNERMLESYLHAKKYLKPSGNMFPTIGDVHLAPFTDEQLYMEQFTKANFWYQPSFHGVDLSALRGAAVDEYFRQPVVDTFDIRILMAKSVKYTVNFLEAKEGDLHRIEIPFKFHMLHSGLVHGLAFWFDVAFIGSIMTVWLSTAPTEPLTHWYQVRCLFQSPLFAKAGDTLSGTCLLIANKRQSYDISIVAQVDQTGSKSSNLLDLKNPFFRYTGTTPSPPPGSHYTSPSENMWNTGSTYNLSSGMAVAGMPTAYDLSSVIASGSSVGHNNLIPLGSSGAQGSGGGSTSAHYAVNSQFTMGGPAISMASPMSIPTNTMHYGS
Assay: CARM1 Biochemical Assay
Conditions: peptide substrate, 3H-SAM Flashplate assay
Text: S-adenosylmethionine (SAM), S-adenosylhomocysteine (SAH), bicine, Tween20, dimethylsulfoxide (DMSO), bovine skin gelatin (BSG), sodium butyrate and Tris(2-carboxyethyl)phosphine hydrochloride solution (TCEP) were purchased from Sigma-Aldrich at the highest level of purity possible. ^3H-SAM was purchase from American Radiolabeled Chemicals with a specific activity of 80 Ci/mmol. 384-well streptavidin Flashplates were purchased from PerkinElmer.
Peptide representative of human histone H3 residues 16-30 was synthesized with an N-terminal linker-affinity tag motif and a C-terminal amide cap by 21st Century Biochemicals. The peptide was purified by high-performance liquid chromatography (HPLC) to greater than 95% purity and confirmed by liquid chromatography mass spectrometry (LC-MS). The sequence was Biot-Ahx-[…]-amide and contained a monomethylated arginine at position 26 (SEQ ID NO.:14).
Human CARM1 (PRMT4) (NM_199141.1) transcript clone was amplified from an HEK 293 cDNA library, incorporating a flanking 5′ sequence encoding a FLAG tag ([…]) (SEQ ID NO.:6) fused directly to Ala 2 of CARM1 and 3′ sequence encoding a hexa His sequence ([…]) (SEQ ID NO.:15) fused directly to Ser 608. The gene sequence encoding isoform1 containing a deletion of amino acids 539-561 was amplified subsequently and subcloned into pFastBacMam (Viva Biotech).
Recombinant baculovirus were generated according to Bac-to-Bac kit instructions (Life Technologies). […] Infections were carried out at 37° C. for 48 hours, harvested by centrifugation, and stored at −80° C. for purification.
Column was washed with 500 mM NaCl in buffer A and Flag-CARM1-His was eluted with 200 ug/ml FLAG peptide in buffer A. Pooled fractions were dialyzed in 20 mM Tris, 150 mM NaCl, 5% glycerol and 1 mM DTT, pH 7.8. The purity of recovered protein was 94.
General Procedure for CARM1 Enzyme Assays on Peptide Substrates.
The assays were all performed in a buffer consisting of 20 mM Bicine (pH=7.6), 1 mM TCEP, 0.005% BSG, and 0.002% Tween 20, prepared on the day of use. Compounds in 100% DMSO (1 ul) were spotted into a polypropylene 384-well V-bottom plates (Greiner) using a Platemate Plus outfitted with a 384-channel head (Thermo Scientific). DMSO (1 ul) was added to Columns 11, 12, 23, 24, rows A-H for the maximum signal control and 1 ul of SAH, a known product and inhibitor of CARM1, was added to columns 11, 12, 23, 24, rows I-P for the minimum signal control. A cocktail (40 ul) containing the CARM1 enzyme was added by Multidrop Combi (Thermo-Fisher). The compounds were allowed to incubate with CARM1 for 30 min at room temperature, then a cocktail (10 ul) containing ^3H-SAM and peptide was added to initiate the reaction (final volume=51 ul). The final concentrations of the components were as follows: CARM1 was 0.25 nM, ^3H-SAM was 30 nM, peptide was 250 nM, SAH in the minimum signal control wells was 1 mM, and the DMSO concentration was 2%. The assays were stopped by the addition of non-radiolabeled SAM (10 ul) to a final concentration of 300 uM, which dilutes the ^3H-SAM to a level where its incorporation into the peptide substrate is no longer detectable. 50 ul of the reaction in the 384-well polypropylene plate was then transferred to a 384-well Flashplate and the biotinylated peptides were allowed to bind to the streptavidin surface for at least 1 hour before being washed once with 0.1% Tween20 in a Biotek ELx405 plate washer. The plates were then read in a PerkinElmer TopCount plate reader to measure the quantity of ^3H-labeled peptide bound to the Flashplate surface, measured as disintegrations per minute (dpm) or alternatively, referred to as counts per minute (cpm).
Where dpm=disintegrations per minute, cmpd=signal in assay well, and min and max are the respective minimum and maximum signal controls.
Where top and bottom are the normally allowed to float, but may be fixed at 100 or 0 respectively in a 3-parameter fit. […]

| SMILES | IC50 [µM] |
| --- | --- |
| CNCCN(C)Cc1c[nH]nc1-c1ccc(N)nc1 [Compound 3] | 3.01 to 10 |
| Cc1cncc(-c2n[nH]cc2CN(C)CCN)c1 [Compound 6] | ≥ 10 |
| CN(CCN)Cc1c[nH]nc1-c1cncc(S(C)(=O)=O)c1 [Compound 4] | ≥ 10 |
| CN(CCN)Cc1c[nH]nc1-c1ccncc1 [Compound 9] | 3.01 to 10 |
| CN(CCN)Cc1c[nH]nc1-c1cncc(F)c1 [Compound 7] | 1.01 to 3 |
| CNCCN(C)Cc1c[nH]nc1-c1cccnc1 [Compound 1] | 1.01 to 3 |
| Cc1cc(-c2n[nH]cc2CN(C)CCN)cnc1Cl [Compound 10] | 0.101 to 1 |
| COc1ccc(-c2n[nH]cc2CN(C)CCN)cn1 [Compound 5] | 3.01 to 10 |
| CN(CCN)Cc1c[nH]nc1-c1cccnc1 [Compound 8] | 3.01 to 10 |
| CNCCN(C)Cc1c[nH]nc1-c1ccc(O)nc1 [Compound 2] | ≥ 10 |
